Reference: the supplement of paper PMC11208160

assay: recombinant UMI read abundance after kanamycin selection (control-corrected) (log10(CPM+1)); higher = more efficient recombination; extreme values may be limits of the assay; sequences stand for … in AGTGCAGAGAAAATCGGCCAGTTTTCTCTGCCTGCAGTCCGCATGCCGTGGGACCCCTTGGGTTCTAACCTGTTGCCTAGATTTATGCAGCGGACTGCCTTTCTCCCAAAGTGATAAACCGG…AGGTTGGTTTCACT; site = the 11-nt donor
Summary of the method: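 In a pooled Escherichia coli screen for the IS621 bridge recombinase, donor and donor-binding-loop pairs were each placed with a 12-nt UMI on a plasmid bearing a promoterless kanamycin gene. This library was co-electroporated with a target plasmid encoding a fixed target and T7-inducible recombinase, and cells were plated either on IPTG (0.07 mM) plus kanamycin or without selection, in two replicates each. Recombinant UMIs were PCR-amplified across the donor–target junction and sequenced, and counts were converted to CPM, averaged over replicates, scaled by control-derived factors and reported as log10(CPM+1).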

Row | Sequence | recombinant UMI read abundance (log10)
1 | CTCCAGTCATGGACCGGTTTTCCCGGTAATCCGTATTTGAG (site CTCCAGTCTCT) | 0.842
2 | CTCCCAACATGGACCGGTTTTCCCGGTAATCCGTATTTGAG (site CTCCCAACTCT) | 0.687
3 | CTCCCAACATGGACCGGTTTTCCCGGTAATCCGTATTTGAG (site CTCCCCACTCT) | 0.00702
4 | CTCCCAACATGGACCGGTTTTCCCGGTAATCCGTATTTGAG (site CTCCCGACTCT) | 0.0167
5 | CTCCCAACATGGACCGGTTTTCCCGGTAATCCGTATTTGAG (site CTCCCTACTCT) | 0.00578
6 | CTCCCTCCATGGACCGGTTTTCCCGGTAATCCGTATTTGAG (site CTCCCTACTCT) | 0.00615
7 | CTCCCTCCATGGACCGGTTTTCCCGGTAATCCGTATTTGAG (site CTCCCTCCTCT) | 0.0401
8 | CTCCCTCCATGGACCGGTTTTCCCGGTAATCCGTATTTGAG (site CTCCCTGCTCT) | 0.009
9 | CTCCCTCCATGGACCGGTTTTCCCGGTAATCCGTATTTGAG (site CTCCCTTCTCT) | 0.0108
10 | CTCCTAACATGGACCGGTTTTCCCGGTAATCCGTATTTGGA (site CTACTAACTTC) | 0.00356
11 | CTCCTAACATGGACCGGTTTTCCCGGTAATCCGTATTTGGA (site CTCCTAACTTC) | 0.655
12 | CTCCTAACATGGACCGGTTTTCCCGGTAATCCGTATTTGGA (site CTGCTAACTTC) | 0.0178
13 | CTCCTAACATGGACCGGTTTTCCCGGTAATCCGTATTTGGA (site CTTCTAACTTC) | 0.0149
14 | CTCCTTACATGGACCGGTTTTCCCGGTAATCCGTATTTGAG (site CTCCATACTCT) | 0
15 | CTCCTTACATGGACCGGTTTTCCCGGTAATCCGTATTTGAG (site CTCCCTACTCT) | 0.00731
16 | CTCCTTACATGGACCGGTTTTCCCGGTAATCCGTATTTGAG (site CTCCGTACTCT) | 0
17 | CTCCTTACATGGACCGGTTTTCCCGGTAATCCGTATTTGAG (site CTCCTTACTCT) | 0.201
18 | CTCGACACATGGACCGGTTTTCCCGGTAATCCGTATTTGGA (site CTCGACACTTC) | 0.942
19 | CTCGCTACATGGACCGGTTTTCCCGGTAATCCGTATTTGAG (site CTCACTACTCT) | 0.085
20 | CTCGCTACATGGACCGGTTTTCCCGGTAATCCGTATTTGAG (site CTCCCTACTCT) | 0.00726
21 | CTCGCTACATGGACCGGTTTTCCCGGTAATCCGTATTTGAG (site CTCGCTACTCT) | 1.03
22 | CTCGCTACATGGACCGGTTTTCCCGGTAATCCGTATTTGAG (site CTCTCTACTCT) | 0.139
23 | CTCGGCCCATGGACCGGTTTTCCCGGTAATCCGTATTTGTT (site CACGGCCCTAA) | 0.0311

Row | Sequence | recombinant UMI read abundance (log10)
24 | CTCGGCCCATGGACCGGTTTTCCCGGTAATCCGTATTTGTT (site CCCGGCCCTAA) | 0.0244
25 | CTCGGCCCATGGACCGGTTTTCCCGGTAATCCGTATTTGTT (site CGCGGCCCTAA) | 0.0316
26 | CTCGGCCCATGGACCGGTTTTCCCGGTAATCCGTATTTGTT (site CTCGGCCCTAA) | 0.0107
27 | CTCGGCGCATGGACCGGTTTTCCCGGTAATCCGTATTTGCC (site CTCGGCGCTGG) | 2.12
28 | CTCGGGCCATGGACCGGTTTTCCCGGTAATCCGTATTTGTG (site CTCGGGCCTCA) | 0
29 | CTCGTATCATGGACCGGTTTTCCCGGTAATCCGTATTTGTC (site CTAGTATCTGT) | 0
30 | CTCGTATCATGGACCGGTTTTCCCGGTAATCCGTATTTGTC (site CTCGTATCTGA) | 2.69
31 | CTCGTCCCATGGACCGGTTTTCCCGGTAATCCGTATTTGTA (site CTCGTCCCTTA) | 1.66
32 | CTCGTTACATGGACCGGTTTTCCCGGTAATCCGTATTTGTG (site CTCGTTACTCA) | 0.783
33 | CTCTACACATGGACCGGTTTTCCCGGTAATCCGTATTTGCG (site CTCTACACTAG) | 0.613
34 | CTCTACACATGGACCGGTTTTCCCGGTAATCCGTATTTGCG (site CTCTACACTCG) | 1.73
35 | CTCTACACATGGACCGGTTTTCCCGGTAATCCGTATTTGCG (site CTCTACACTGG) | 0.00583
36 | CTCTACACATGGACCGGTTTTCCCGGTAATCCGTATTTGCG (site CTCTACACTTG) | 0.829
37 | CTCTACGCATGGACCGGTTTTCCCGGTAATCCGTATTTGCT (site CTCTACACTAG) | 0.475
38 | CTCTACGCATGGACCGGTTTTCCCGGTAATCCGTATTTGCT (site CTCTACCCTAG) | 0
39 | CTCTACGCATGGACCGGTTTTCCCGGTAATCCGTATTTGCT (site CTCTACGCTAG) | 0.572
40 | CTCTACGCATGGACCGGTTTTCCCGGTAATCCGTATTTGCT (site CTCTACTCTAG) | 2.89
41 | CTCTCCTCATGGACCGGTTTTCCCGGTAATCCGTATTTGCC (site CACTCCTCTGG) | 2.68
42 | CTCTCCTCATGGACCGGTTTTCCCGGTAATCCGTATTTGCC (site CCCTCCTCTGG) | 2.6
43 | CTCTCCTCATGGACCGGTTTTCCCGGTAATCCGTATTTGCC (site CGCTCCTCTGG) | 2.57
44 | CTCTCCTCATGGACCGGTTTTCCCGGTAATCCGTATTTGCC (site CTCTCCTCTGG) | 2.63
45 | CTCTGGACATGGACCGGTTTTCCCGGTAATCCGTATTTGGA (site TGAGTCTCTCA) | 0
46 | CTCTTGGCATGGACCGGTTTTCCCGGTAATCCGTATTTGGA (site CACTTGGCTTC) | 0.273

Row | Sequence | recombinant UMI read abundance (log10)
47 | CTCTTGGCATGGACCGGTTTTCCCGGTAATCCGTATTTGGA (site CCCTTGGCTTC) | 0.169
48 | CTCTTGGCATGGACCGGTTTTCCCGGTAATCCGTATTTGGA (site CGCTTGGCTTC) | 0.00297
49 | CTCTTGGCATGGACCGGTTTTCCCGGTAATCCGTATTTGGA (site CTCTTGGCTTC) | 0.529
50 | CTGAATCCATGGACCGGTTTTCCCGGTAATCCGTATTTGTG (site CGGAATCCTAA) | 0.00601
51 | CTGAATCCATGGACCGGTTTTCCCGGTAATCCGTATTTGTG (site CTGAATCCTCA) | 0.684
52 | CTGACCTCATGGACCGGTTTTCCCGGTAATCCGTATTTGTA (site CTGACCTCTTA) | 2.34
53 | CTGAGATCATGGACCGGTTTTCCCGGTAATCCGTATTTGTA (site CTGAGATCTTA) | 2.8
54 | CTGAGGCCATGGACCGGTTTTCCCGGTAATCCGTATTTGGT (site CTGAGGCCTAC) | 0
55 | CTGATACCATGGACCGGTTTTCCCGGTAATCCGTATTTGCT (site CTGATACCTAG) | 0.00587
56 | CTGATACCATGGACCGGTTTTCCCGGTAATCCGTATTTGCT (site CTGCTACCTAG) | 0
57 | CTGATACCATGGACCGGTTTTCCCGGTAATCCGTATTTGCT (site CTGGTACCTAG) | 0
58 | CTGATACCATGGACCGGTTTTCCCGGTAATCCGTATTTGCT (site CTGTTACCTAG) | 0
59 | CTGCACACATGGACCGGTTTTCCCGGTAATCCGTATTTGAT (site CTGCACACTAT) | 2.25
60 | CTGCCACCATGGACCGGTTTTCCCGGTAATCCGTATTTGCT (site CTGCAACCTAG) | 0
61 | CTGCCACCATGGACCGGTTTTCCCGGTAATCCGTATTTGCT (site CTGCCACCTAG) | 0.00511
62 | CTGCCACCATGGACCGGTTTTCCCGGTAATCCGTATTTGCT (site CTGCGACCTAG) | 0
63 | CTGCCACCATGGACCGGTTTTCCCGGTAATCCGTATTTGCT (site CTGCTACCTAG) | 0
64 | CTGCCCACATGGACCGGTTTTCCCGGTAATCCGTATTTGCG (site CTGCCCACTCG) | 1.76
65 | CTGCGAGCATGGACCGGTTTTCCCGGTAATCCGTATTTGCA (site CTGCGAGCTTG) | 0.942
66 | CTGCGTTCATGGACCGGTTTTCCCGGTAATCCGTATTTGGA (site CTGCGTTCTTC) | 1.44
67 | CTGCTAACATGGACCGGTTTTCCCGGTAATCCGTATTTGCC (site CTGCTAACTGG) | 2.21
68 | CTGCTACCATGGACCGGTTTTCCCGGTAATCCGTATTTGAT (site CTGCTACCTAA) | 0.0178
